Structures can show the parent of a compound that is named as a salt.

Target in the first assay: not listed separately
Description: Binding assay for the sigma receptor sites is performed by utilizing [3H]N,N-di-o-tolylguanidine ([3H]DTG) and guinea pig brain membrane suspensions.
By IC50 is commonly meant the point on the concentration scale where inhibition reaches its midpoint. Read a low IC50 as greater potency in that assay. Take `CCc1cccc(NC(=N)N(C)c2cccc(CC)c2)c1`: the concentration for half-maximal inhibition (IC50) came out at 82 nM.
Still for that read-out and setting: the result for `CCc1cccc(N(C)C(N)=Nc2cccc3ccccc23)c1` [APTIGANEL HYDROCHLORIDE] reads 2540 nM.

For another assay, the target named is Glutamate NMDA receptor. Description: In vitro radioligand binding assay for the N-methyl-D-aspartate glutamate receptor is performed using [3H]MK-801 and rat brain membrane suspensions.
Usually Ki stands for the dissociation constant of the complex between target and ligand, obtained from inhibition or displacement. With `CCc1cccc(NC(=N)Nc2cc(Cl)ccc2Cl)c1`, the affinity, expressed as Ki, was 68 nM.
The same measure, in the same setting: the result for `CCc1cccc(NC(=N)N(C)c2cc(CC)ccc2Cl)c1` reads 65 nM; that for `CCc1cccc(NC(=N)Nc2cccc(CC)c2)c1`, 129 nM.
In the case of `CCc1cccc(N(C)C(=N)Nc2cc(C)cc(CC)c2Cl)c1`, the affinity corresponds to a Ki of 78 nM.
Consider `CCc1cccc(NC(=N)Nc2c(Cl)cccc2Cl)c1`, for which affinity was put at a Ki of 133 nM.
Regarding `CCc1cccc(N(C)C(=N)Nc2cccc(Cl)c2Cl)c1`, the Ki stood at 116 nM.
Same read-out and setting: the value for `CCc1cccc(N(C)C(=N)Nc2ccc(Cl)c(Cl)c2)c1` was 1280 nM; that for `CCc1cccc(NC(=N)Nc2ccccc2C)c1` was 768 nM.
Still for that read-out and setting: the result for `CCc1cccc(NC(=N)Nc2cccc(Cl)c2)c1` reads 112 nM; that for `CCc1cccc(NC(=N)Nc2cc(CC)cc(CC)c2F)c1`, 50 nM; that for `CCc1cccc(N(C)C(=N)Nc2cccc(SC)c2)c1`, 6.4 nM.
`CCc1cccc(NC(=N)Nc2cc(CC)cc(CC)c2Br)c1` yielded a Ki of 29 nM.
Same read-out and setting: the value for `CCc1cccc(NC(=N)Nc2ccccc2CC)c1` was 350 nM; that for `CCc1cccc(N(C)C(=N)N(C)c2cc(Br)ccc2Br)c1` was 27 nM; that for `CCc1cccc(NC(=N)Nc2cccc(Cl)c2Cl)c1` was 156 nM.
Still for that read-out and setting: the result for `CCc1cccc(N(C)C(=N)Nc2ccccc2C(C)C)c1` reads 564 nM.
`CCc1cccc(N(C)C(=N)Nc2cccc(Cl)c2)c1` displayed an inhibitory constant (Ki) of 497 nM.
The same measure, in the same setting: the value for `CCc1cccc(NC(=N)Nc2ccc(Cl)c(Cl)c2)c1` was 204 nM.
With `CCc1cccc(N(C)C(=N)Nc2ccccc2Cl)c1`, the Ki was 386 nM.
Still for that read-out and setting: the result for `CCc1cccc(NC(=N)Nc2cc(C)cc(CC)c2Cl)c1` reads 77 nM.
Regarding `CCc1cccc(NC(=N)Nc2ccccc2Cl)c1`, affinity was put at a Ki of 249 nM.
On the same count and under the same terms, the value for `CCc1cccc(N(C)C(=N)N(C)c2cc(Cl)ccc2Cl)c1` was 72 nM; that for `CCc1cccc(N(C)C(=N)Nc2ccccc2I)c1` was 101 nM.
In turn, `CCc1cccc(NC(=N)Nc2ccccc2C(C)C)c1` had a Ki of 230 nM.
Same read-out and setting: the result for `CCc1cccc(N(C)C(=N)Nc2cccc(Br)c2)c1` reads 81 nM; that for `CCc1cccc(NC(=N)Nc2cc(Cl)cc(Cl)c2)c1`, 115 nM; that for `CCc1cccc(NC(=N)Nc2ccc(Cl)cc2)c1`, 738 nM.
`CCc1cccc(NC(=N)Nc2ccc(Cl)cc2Cl)c1` showed an inhibition constant (Ki) of 140 nM.
For the molecule `CCc1cccc(NC(=N)Nc2cc(SC)cc(CC)c2Cl)c1`, the inhibition constant (Ki) turned out to be 11.8 nM.
For `CCc1cccc(N(C)C(=N)Nc2ccccc2Br)c1`, the Ki is 265 nM.
On the same count and under the same terms, the result for `CCc1cccc(N(C)C(=N)Nc2cc(Cl)ccc2Cl)c1` reads 65 nM.
Molecule `CCc1cccc(N(C)C(=N)Nc2ccc(Cl)cc2)c1` gave a Ki of 3340 nM.
`CCc1cccc(N(C)C(=N)Nc2cc(CC)cc(CC)c2F)c1` gave a Ki of 97 nM.
Still for that read-out and setting: the value for `CCc1cccc(N(C)C(N)=Nc2cccc3ccccc23)c1` [APTIGANEL HYDROCHLORIDE] was 29 nM.
`CCc1cccc(N(C)C(=N)N(C)c2cc(CC)ccc2Cl)c1` registered an inhibition constant (Ki) of 111 nM.
On the same count and under the same terms, the result for `CCc1cccc(NC(=N)Nc2cc(CC)cc(CC)c2)c1` reads 129 nM; that for `CCc1cccc(NC(=N)Nc2cccc(Br)c2)c1`, 51 nM.

For the origin of these results see ChEMBL document CHEMBL1130271, “Synthesis and pharmacological evaluation of N-(2,5-disubstituted phenyl)-N'-(3-substituted phenyl)-N'-methylguanidines as N-methyl-D-aspartate receptor ion-channel blockers” (J Med Chem, 1997).
